The experiment has as its target bovine cardiac myofibrils (full-length cardiac myosin ATPase in the native sarcomere) (Bos taurus (Bovine), UniProt Q9BE39). The experiment can be described thus: Skinned bovine cardiac myofibril ATPase assay (PK/LDH-coupled). In kind it is biochemical. The note with it: Ca2+ activating to 75% of maximal rate; for CDMF75 IC15: concentration giving 15% inhibition; for IC50: read-out: CDMF75 IC50. The essentials: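 Triton-skinned bovine left-ventricle myofibrils (1 mg/mL) in PM 12 buffer (12 mM PIPES, 2 mM MgCl2, pH 6.8) with 50 μM ATP, 0.6 mM EGTA and CaCl2 set for 50% or 75% activation. Steady-state ATPase inhibition followed by PK/LDH-coupled NADH oxidation at 340 nm.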

Chain of bovine cardiac myofibrils (full-length cardiac myosin ATPase in the native sarcomere) (Q9BE39 whole entry): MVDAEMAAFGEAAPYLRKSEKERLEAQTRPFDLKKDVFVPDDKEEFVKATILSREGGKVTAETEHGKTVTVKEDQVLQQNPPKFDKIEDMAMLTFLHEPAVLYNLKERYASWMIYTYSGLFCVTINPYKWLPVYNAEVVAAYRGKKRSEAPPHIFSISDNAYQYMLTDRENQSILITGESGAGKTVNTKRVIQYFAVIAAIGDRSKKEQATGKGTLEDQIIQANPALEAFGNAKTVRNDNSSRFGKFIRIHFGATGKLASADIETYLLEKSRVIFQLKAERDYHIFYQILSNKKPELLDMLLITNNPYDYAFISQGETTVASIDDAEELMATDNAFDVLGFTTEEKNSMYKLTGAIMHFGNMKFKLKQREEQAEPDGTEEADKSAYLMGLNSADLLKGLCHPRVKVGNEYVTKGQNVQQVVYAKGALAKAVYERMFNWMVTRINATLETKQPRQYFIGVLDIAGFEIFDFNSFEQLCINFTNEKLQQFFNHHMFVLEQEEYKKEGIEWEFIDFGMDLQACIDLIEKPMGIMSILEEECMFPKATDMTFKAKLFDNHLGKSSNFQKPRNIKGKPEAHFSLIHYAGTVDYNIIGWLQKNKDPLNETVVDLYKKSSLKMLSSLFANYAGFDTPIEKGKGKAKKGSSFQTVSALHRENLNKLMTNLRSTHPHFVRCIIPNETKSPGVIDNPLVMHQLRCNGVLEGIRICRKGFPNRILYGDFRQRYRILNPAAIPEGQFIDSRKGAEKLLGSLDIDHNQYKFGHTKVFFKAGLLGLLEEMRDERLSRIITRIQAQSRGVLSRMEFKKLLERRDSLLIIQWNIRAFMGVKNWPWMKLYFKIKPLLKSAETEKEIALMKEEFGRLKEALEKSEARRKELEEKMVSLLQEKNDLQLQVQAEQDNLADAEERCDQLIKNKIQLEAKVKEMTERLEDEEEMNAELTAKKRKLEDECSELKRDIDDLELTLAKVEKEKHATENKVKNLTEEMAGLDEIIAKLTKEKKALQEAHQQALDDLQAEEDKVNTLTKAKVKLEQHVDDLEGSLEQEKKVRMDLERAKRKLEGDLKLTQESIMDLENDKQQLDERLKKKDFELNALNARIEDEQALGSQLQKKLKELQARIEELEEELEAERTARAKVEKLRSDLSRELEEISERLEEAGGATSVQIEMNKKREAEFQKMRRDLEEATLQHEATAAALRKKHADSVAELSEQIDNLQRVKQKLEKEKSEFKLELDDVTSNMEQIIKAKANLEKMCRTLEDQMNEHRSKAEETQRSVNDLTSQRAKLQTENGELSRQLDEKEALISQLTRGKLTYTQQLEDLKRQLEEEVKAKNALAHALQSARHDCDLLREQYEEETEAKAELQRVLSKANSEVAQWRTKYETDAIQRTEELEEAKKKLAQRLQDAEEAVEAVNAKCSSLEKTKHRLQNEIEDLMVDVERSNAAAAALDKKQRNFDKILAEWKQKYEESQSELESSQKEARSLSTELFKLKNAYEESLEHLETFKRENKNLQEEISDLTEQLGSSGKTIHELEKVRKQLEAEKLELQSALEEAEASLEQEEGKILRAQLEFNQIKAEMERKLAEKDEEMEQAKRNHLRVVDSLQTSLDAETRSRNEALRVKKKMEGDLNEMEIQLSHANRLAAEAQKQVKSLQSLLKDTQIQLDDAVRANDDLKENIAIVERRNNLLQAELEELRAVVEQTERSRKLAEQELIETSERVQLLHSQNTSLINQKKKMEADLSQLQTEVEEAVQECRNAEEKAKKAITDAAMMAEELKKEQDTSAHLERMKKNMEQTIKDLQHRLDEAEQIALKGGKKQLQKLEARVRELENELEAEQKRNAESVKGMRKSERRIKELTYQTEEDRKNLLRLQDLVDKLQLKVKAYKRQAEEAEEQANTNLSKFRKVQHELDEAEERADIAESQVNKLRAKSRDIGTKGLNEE
Chain of bovine cardiac myofibrils (full-length cardiac myosin ATPase in the native sarcomere) (P85100 whole entry partner): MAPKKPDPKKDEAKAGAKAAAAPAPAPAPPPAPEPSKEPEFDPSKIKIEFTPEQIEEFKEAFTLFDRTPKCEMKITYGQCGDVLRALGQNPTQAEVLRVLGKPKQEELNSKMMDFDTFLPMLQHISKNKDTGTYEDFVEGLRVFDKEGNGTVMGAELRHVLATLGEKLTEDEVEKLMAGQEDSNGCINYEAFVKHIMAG
Chain of bovine cardiac myofibrils (full-length cardiac myosin ATPase in the native sarcomere) (Q3SZE5 whole entry partner): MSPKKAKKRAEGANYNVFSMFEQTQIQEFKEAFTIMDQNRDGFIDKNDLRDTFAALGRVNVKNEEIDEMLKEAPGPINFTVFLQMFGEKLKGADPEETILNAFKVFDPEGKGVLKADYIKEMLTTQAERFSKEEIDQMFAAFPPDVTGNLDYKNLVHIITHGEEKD

As for `Cn1nccc1C(=O)N[C@@H]1CCc2cc(-c3ccnnc3)ccc21` [Compound 369, (R)-1-methyl-N-(5-(pyridazin-4-yl)-2,3-dihydro-1H-inden-1-yl)-1H-pyrazole-5-carboxamide], the “CDMF75 IC15” value came out at 39200 nM and the IC50 (in general, the concentration needed to halve the response being measured) is over 39200 nM.
As for `CCc1nc(-c2ccc3c(c2)CC[C@H]3NC(=O)c2cnn(C)c2C)no1` [Compound 571, (R)-N-(5-(5-ethyl-1,2,4-oxadiazol-3-yl)-2,3-dihydro-1H-inden-1-yl)-1,5-dimethyl-1H-pyrazole-4-carboxamide], the “CDMF75 IC15” value came out at 400 nM and the IC50 is 1300 nM.
In the same order, the values of `Cc1cnc(C(=O)N[C@@H]2CCc3cc(-c4noc(C(F)F)n4)ccc32)o1` [Compound 681, (R)-N-(5-(5-(difluoromethyl)-1,2,4-oxadiazol-3-yl)-2,3-dihydro-1H-inden-1-yl)-5-methyloxazole-2-carboxamide] are 1300 nM and 5900 nM.
In the case of `Cc1ncccc1C(=O)NC1CCc2cc(-c3noc(C(F)F)n3)ccc21` (centres unmarked) [Compound 39, N-(5-(5-(difluoromethyl)-1,2,4-oxadiazol-3-yl)-2,3-dihydro-1H-inden-1-yl)-2-methylnicotinamide], the “CDMF75 IC15” value amounted to 31000 nM and the IC50 was over 39200 nM.
In the same order, the values of `Cc1nc(-c2ccc3c(c2)CCC3NC(=O)Nc2cccnc2)no1` (centres unmarked) [Compound 62, 1-(5-(5-methyl-1,2,4-oxadiazol-3-yl)-2,3-dihydro-1H-inden-1-yl)-3-(pyridin-3-yl)urea] are 1500 nM and 8700 nM.
Turning to `[2H]C([2H])([2H])c1nc(-c2ccc3c(c2)CC[C@H]3NC(=O)c2ccnc(C)c2)no1` [Compound 245, (R)-2-methyl-N-(5-(5-(methyl-d3)-1,2,4-oxadiazol-3-yl)-2,3-dihydro-1H-inden-1-yl)isonicotinamide], the “CDMF75 IC15” value turned out to be 1000 nM and the IC50 worked out at 3400 nM.
For the compound `Cc1cc(-c2ccc3c(c2)CC[C@H]3NC(=O)c2ocnc2C)no1` [Compound 418, (R)-4-methyl-N-(5-(5-methylisoxazol-3-yl)-2,3-dihydro-1H-inden-1-yl)oxazole-5-carboxamide], the “CDMF75 IC15” value was determined as 300 nM and the IC50 came out at 1200 nM.
Taken in the same sequence, the figures for `CCc1nc(-c2ccc3c(c2)CC[C@H]3NC(=O)c2cc(C)nn2C)no1` [Compound 567, (R)-N-(5-(5-ethyl-1,2,4-oxadiazol-3-yl)-2,3-dihydro-1H-inden-1-yl)-1,3-dimethyl-1H-pyrazole-5-carboxamide] were 300 nM and 1000 nM.
On to `CCc1nc(-c2ccc3c(c2)CC[C@H]3NC(=O)c2conc2C)no1` [Compound 566, (R)-N-(5-(5-ethyl-1,2,4-oxadiazol-3-yl)-2,3-dihydro-1H-inden-1-yl)-3-methylisoxazole-4-carboxamide], for which the “CDMF75 IC15” value was 200 nM and the IC50 worked out at 800 nM.
In the same order, the values of `COCc1nc(-c2ccc3c(c2)CC[C@H]3NC(=O)c2c[nH]nc2C)no1` [Compound 397, (R)-N-(5-(5-(methoxymethyl)-1,2,4-oxadiazol-3-yl)-2,3-dihydro-1H-inden-1-yl)-3-methyl-1H-pyrazole-4-carboxamide] are 900 nM and 3200 nM.
In the same order, the values of `Cc1nc(-c2ccc3c(c2)OC[C@H]3NC(=O)c2ccnc(CO)c2)no1` [Compound 719, (S)-2-(hydroxymethyl)-N-(6-(5-methyl-1,2,4-oxadiazol-3-yl)-2,3-dihydrobenzofuran-3-yl)isonicotinamide] are 800 nM and 3700 nM.
Take `CCOC(=O)N[C@@H]1CCc2cc(-c3noc(C(F)F)n3)ccc21` [Compound 278, ethyl (R)-(5-(5-(difluoromethyl)-1,2,4-oxadiazol-3-yl)-2,3-dihydro-1H-inden-1-yl)carbamate]: the “CDMF75 IC15” value is 1300 nM and the IC50 was 5200 nM.
In the case of `CCn1nccc1C(=O)NC1CCc2cc(-c3noc(C)n3)ccc21` (centres unmarked) [Compound 56, 1-ethyl-N-(5-(5-methyl-1,2,4-oxadiazol-3-yl)-2,3-dihydro-1H-inden-1-yl)-1H-pyrazole-5-carboxamide], the “CDMF75 IC15” value stood at 2500 nM and the IC50 is 8500 nM.
Consider `CCOC(=O)C(C)c1nc(-c2ccc3c(c2)CC[C@H]3NC(=O)c2ccnn2C)no1` (stereo partly drawn) [Compound 492, ethyl 2-(3-((R)-1-(1-methyl-1H-pyrazole-5-carboxamido)-2,3-dihydro-1H-inden-5-yl)-1,2,4-oxadiazol-5-yl)propanoate], for which the “CDMF75 IC15” value came out at 1100 nM and the IC50 came out at 4000 nM.
On to `COCc1nc(-c2ccc3c(c2)CC[C@H]3NC(=O)c2ccnn2C)no1` [Compound 175, (R)-N-(5-(5-(methoxymethyl)-1,2,4-oxadiazol-3-yl)-2,3-dihydro-1H-inden-1-yl)-1-methyl-1H-pyrazole-5-carboxamide], for which the “CDMF75 IC15” value amounted to 400 nM and the half-maximal inhibitory concentration (IC50) stood at 1400 nM.
Consider `CC(=O)N[C@@H]1COc2cc(-c3noc(C(F)F)n3)ccc21` [Compound 444, (S)-N-(6-(5-(difluoromethyl)-1,2,4-oxadiazol-3-yl)-2,3-dihydrobenzofuran-3-yl)acetamide], for which the “CDMF75 IC15” value was 1600 nM and the IC50 came out at 7900 nM.
In the same order, the values of `CCc1nc(-c2ccc3c(c2)CC[C@H]3NC(=O)c2cn(CCO)nc2C)no1` [Compound 597, (R)-N-(5-(5-ethyl-1,2,4-oxadiazol-3-yl)-2,3-dihydro-1H-inden-1-yl)-1-(2-hydroxyethyl)-3-methyl-1H-pyrazole-4-carboxamide] are 500 nM and 1900 nM.
Taken in the same sequence, the figures for `Cc1cc(C(=O)N[C@@H]2CCc3cc(-c4nc(C)no4)ccc32)cnn1` [Compound 705, (R)-6-methyl-N-(5-(3-methyl-1,2,4-oxadiazol-5-yl)-2,3-dihydro-1H-inden-1-yl)pyridazine-4-carboxamide] were 4900 nM and 28100 nM.
In the same order, the values of `Cc1ncc(C(=O)N[C@@H]2COc3cc(-c4noc(C5CC5)n4)ccc32)o1` [Compound 463, (S)-N-(6-(5-cyclopropyl-1,2,4-oxadiazol-3-yl)-2,3-dihydrobenzofuran-3-yl)-2-methyloxazole-5-carboxamide] are 700 nM and 2400 nM.
Regarding `Cc1nc(-c2ccc3c(c2)OCC3NC(=O)c2cn(C)nc2C)no1` (centres unmarked) [Compound 157, 1,3-dimethyl-N-(6-(5-methyl-1,2,4-oxadiazol-3-yl)-2,3-dihydrobenzofuran-3-yl)-1H-pyrazole-4-carboxamide], the “CDMF75 IC15” value amounted to 1400 nM and the IC50 turned out to be 5900 nM.
In the case of `CCc1nc(-c2ccc3c(c2)CC[C@H]3NC(=O)[C@H]2COCCN2)no1` [Compound 356, (R)-N-((R)-5-(5-ethyl-1,2,4-oxadiazol-3-yl)-2,3-dihydro-1H-inden-1-yl)morpholine-3-carboxamide], the “CDMF75 IC15” value was determined as 13400 nM and the concentration for half-maximal inhibition (IC50) was over 39200 nM.
Taken in the same sequence, the figures for `CCC(=O)N[C@@H]1CCc2cc(-c3noc(CC)n3)ccc21` [Compound 317, (R)-N-(5-(5-ethyl-1,2,4-oxadiazol-3-yl)-2,3-dihydro-1H-inden-1-yl)propionamide] were 2700 nM and 12100 nM.
